Values after ≈ are worked out from the molar mass of the structure shown. Active and inactive are the calls of the source. The rule behind the calls is not given here. Square brackets hold non-standard residues; d marks the D form. Peptide text beside a SMILES is read from it. Phe(4-Br) = N[C@@H](Cc1ccc(Br)cc1)C(=O)O; Phe(4-Cl) = N[C@@H](Cc1ccc(Cl)cc1)C(=O)O; Phe(4-F) = N[C@@H](Cc1ccc(F)cc1)C(=O)O; Phe(4-I) = N[C@@H](Cc1ccc(I)cc1)C(=O)O; Hica(2S) = CC(C)C[C@H](O)C(=O)O
Legend:
MDA-MB-231 [1] = assay: Cytotoxicity against human MDA-MB-231 cells assessed as growth inhibition at 20 ug/ml after 72 hrs by [3H]-thymidine uptake assay; format: functional; settings: read-out: GI
HCT-116 = assay: Cytotoxicity against human HCT116 cells after 72 hrs by [3H]-thymidine uptake assay; format: functional, cell-based
HCT-15 [2] = assay: Cytotoxicity against human HCT15 cells assessed as growth inhibition at 20 ug/ml after 72 hrs by [3H]-thymidine uptake assay; format: functional; settings: read-out: GI
HT-29 [3] = assay: Cytotoxicity against human HT-29 cells assessed as growth inhibition at 20 ug/ml after 72 hrs by [3H]-thymidine uptake assay; format: functional; settings: read-out: GI
K562 [4] = assay: Cytotoxicity against human K562 cells assessed as growth inhibition at 20 ug/ml after 72 hrs by [3H]-thymidine uptake assay; format: functional; settings: read-out: GI
A549 [5] = assay: Cytotoxicity against human A549 cells assessed as growth inhibition at 20 ug/ml after 72 hrs by [3H]-thymidine uptake assay; format: functional; settings: read-out: GI
A549 [6] = assay: Cytotoxicity against human A549 cells after 72 hrs by [3H]-thymidine uptake assay; format: functional, cell-based
HCT-15 [7] = assay: Cytotoxicity against human HCT15 cells assessed as growth inhibition at 2 ug/ml after 72 hrs by [3H]-thymidine uptake assay; format: functional; settings: read-out: GI
HCT-15 [8] = assay: Cytotoxicity against human HCT15 cells after 72 hrs by [3H]-thymidine uptake assay; format: functional, cell-based
HeLa [9] = assay: Induction of apoptosis in human HeLa cells assessed as rounded and smaller cells at 1.8 ug/ml after 24 hrs by light microscopy analysis; format: functional, cell-based
HeLa [10] = assay: Induction of apoptosis in human HeLa cells assessed as membrane blebbing and nuclear fragmentation at 1.8 ug/ml after 24 hrs by light microscopy analysis; format: functional, cell-based
[11] = Induction of apoptosis in human VSMC cells assessed as morphological changes at 1.8 ug/ml after 24 hrs by light microscopy analysis; format: cell-based
A549 [12] = assay: Cytotoxicity against human A549 cells assessed as growth inhibition at 2 ug/ml after 72 hrs by [3H]-thymidine uptake assay; format: functional; settings: read-out: GI
K562 [13] = assay: Cytotoxicity against human K562 cells assessed as growth inhibition at 2 ug/ml after 72 hrs by [3H]-thymidine uptake assay; format: functional; settings: read-out: GI
K562 [14] = assay: Cytotoxicity against human K562 cells after 72 hrs by [3H]-thymidine uptake assay; format: functional, cell-based
HT-29 [15] = assay: Cytotoxicity against human HT-29 cells after 72 hrs by [3H]-thymidine uptake assay; format: functional, cell-based
HeLa [16] = assay: Cytotoxicity against human HeLa cells after 72 hrs by [3H]-thymidine uptake assay; format: functional, cell-based
HT-29 [17] = assay: Cytotoxicity against human HT-29 cells assessed as growth inhibition at 2 ug/ml after 72 hrs by [3H]-thymidine uptake assay; format: functional; settings: read-out: GI
HeLa [18] = assay: Induction of apoptosis in human HeLa cells assessed as decrease in cell density at 1.8 ug/ml after 24 hrs by light microscopy analysis; format: functional, cell-based
MDA-MB-231 [19] = assay: Cytotoxicity against human MDA-MB-231 cells assessed as growth inhibition at 2 ug/ml after 72 hrs by [3H]-thymidine uptake assay; format: functional; settings: read-out: GI
HeLa [20] = assay: Cytotoxicity against human HeLa cells assessed as growth inhibition at 2 ug/ml after 72 hrs by [3H]-thymidine uptake assay; format: functional; settings: read-out: GI
MDA-MB-231 [21] = assay: Cytotoxicity against human MDA-MB-231 cells after 72 hrs by [3H]-thymidine uptake assay; format: functional, cell-based

Compound | inhibition of growth at 20 µg/mL (MDA-MB-231 [1]) [%] | IC50 (HCT-116) [µg/mL] | inhibition of growth at 20 µg/mL (HCT-15 [2]) [%] | inhibition of growth at 20 µg/mL (HT-29 [3]) [%] | inhibition of growth at 20 µg/mL (K562 [4]) [%] | inhibition of growth at 20 µg/mL (A549 [5]) [%] | other results
CC(C)C[C@@H]1NC(=O)[C@H](Cc2ccc(Br)cc2)NC(=O)[C@H](CC(C)C)NC(=O)[C@H](C(C)C)NC(=O)[C@H](CC(C)C)NC1=O (cyclo([Phe(4-Br)]LLVL)) | 89.3 | 0.58 (≈ 0.873 µM) | 74.3 | 80.2 | – | – | –
CC(C)C[C@@H]1NC(=O)[C@H](Cc2ccc(O)cc2)NC(=O)[C@H](CC(C)C)NC(=O)[C@H](C(C)C)NC(=O)[C@H](CC(C)C)NC1=O (cyclo(LLVLY)) | 42.5 | – | 52 | 34.6 | – | – | –
CC(C)C[C@@H]1NC(=O)[C@H](Cc2ccccc2)NC(=O)[C@H](CC(C)C)NC(=O)[C@H](C(C)C)NC(=O)[C@H](CC(C)C)NC1=O (cyclo(FLLVL)) | 23.6 | 0.98 (≈ 1.67 µM) | 23.1 | 21.5 | 45.3 | 26.6 | –
CC(C)C[C@@H]1NC(=O)[C@H](Cc2ccc(F)cc2)NC(=O)[C@H](CC(C)C)NC(=O)[C@H](C(C)C)NC(=O)[C@H](CC(C)C)NC1=O (cyclo(LLVL[Phe(4-F)])) | 12.3 | – | 21 | 0 | 58.2 | 30.8 | –
CC(C)C[C@@H]1NC(=O)[C@H](Cc2ccc(I)cc2)NC(=O)[C@H](CC(C)C)NC(=O)[C@H](C(C)C)NC(=O)[C@H](CC(C)C)NC1=O (cyclo(LLVL[Phe(4-I)])) | – | 1.12 (≈ 1.57 µM) | – | – | – | – | –
CC(C)C[C@@H]1NC(=O)[C@H](Cc2ccc(Cl)cc2)NC(=O)[C@H](CC(C)C)NC(=O)[C@H](C(C)C)NC(=O)[C@H](CC(C)C)NC1=O (cyclo(LLVL[Phe(4-Cl)])) | 15 | – | 1.21 | 1.23 | 3.57 | 5.2 | –
CC(C)C[C@@H]1NC(=O)[C@H](C(C)C)NC(=O)[C@H](CC(C)C)OC(=O)[C@H](CC(C)C)NC(=O)[C@H](Cc2ccccc2)NC1=O (cyclo(FL[Hica(2S)]VL)) | – | 9.8 (≈ 16.7 µM) | – | – | – | – | –
COc1ccc(C[C@@H]2NC(=O)[C@H](CC(C)C)NC(=O)[C@H](C(C)C)NC(=O)[C@H](CC(C)C)NC(=O)[C@H](CC(C)C)NC2=O)cc1 (cyclo(LLVLY(Me))) | 43.2 | – | 80.8 | 88.5 | 93.8 | 98.2 | IC50 (A549 [6]): 2.41 µM; inhibition of growth at 2 µg/mL (HCT-15 [7]): 78.8%; IC50 (HCT-15 [8]): 3.54 µM; Activity (HeLa [9]): Active; Activity (HeLa [10]): Active; Activity [11]: Non-toxic; inhibition of growth at 2 µg/mL (A549 [12]): 91.3%; inhibition of growth at 2 µg/mL (K562 [13]): 86.5%; IC50 (K562 [14]): 2.87 µM; IC50 (HT-29 [15]): 3.38 µM; IC50 (HeLa [16]): 3.22 µM; inhibition of growth at 2 µg/mL (HT-29 [17]): 76.4%; Activity (HeLa [18]): Active; inhibition of growth at 2 µg/mL (MDA-MB-231 [19]): 40.5%; inhibition of growth at 2 µg/mL (HeLa [20]): 50.9%; IC50 (MDA-MB-231 [21]): 11.1 µM
CC(C)C[C@@H]1NC(=O)[C@H](C(C)C)NC(=O)[C@H](CC(C)C)OC(=O)[C@H](CC(C)C)NC(=O)[C@H](Cc2ccc(Br)cc2)NC1=O (cyclo(L[Phe(4-Br)]L[Hica(2S)]V)) | – | 4.5 (≈ 6.76 µM) | – | – | – | – | –
CC(C)C[C@@H]1NC(=O)[C@H](C(C)C)NC(=O)[C@H](CC(C)C)OC(=O)[C@H](CC(C)C)NC(=O)[C@H](Cc2ccc(I)cc2)NC1=O (cyclo(L[Phe(4-I)]L[Hica(2S)]V)) | – | 11.3 (≈ 15.9 µM) | – | – | – | – | –
